In brackets after ≈: the same amount, converted by molar mass. Blank lines part the entries; values can stand above or below the molecule they belong to.
How the values were obtained:
E. faecalis ATCC 29212 = assay: direct antimicrobial activity (disc-diffusion, MIC, MBC); format: cell-based; conditions: Enterococcus faecalis, ATCC29212
Method in brief: (§1)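 EUCAST/CLSI methods: disc diffusion at 0.4 mg compound/disc, broth MIC, then MBC (bacteria) or MFC (yeast). DMSO vehicle.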

E. faecium ATCC 6057 = assay: as above; format: cell-based; conditions: Enterococcus faecium, ATCC6057
Method in brief: as §1

[1] = system: S. aureus ATCC 43300 MRSA; assay: as above; format: cell-based; conditions: Staphylococcus aureus
Method in brief: as §1

S. aureus ATCC 6538P = assay: as above; format: cell-based; conditions: Staphylococcus aureus, ATCC6538P
Method in brief: as §1

[2] = system: S. epidermidis ATCC 12228; assay: as above; format: cell-based; conditions: Staphylococcus epidermidis, ATCC12228
Method in brief: as §1

B. subtilis ATCC 6633 = assay: direct antimicrobial activity (disc-diffusion); format: cell-based; conditions: Bacillus subtilis, ATCC6633; 0.4 mg per disc, 9 mm disc (linezolid 0.03 mg, 6 mm disc); - no zone; read-out: Diameter of inhibition zone
Protocol: (§2) Direct antimicrobial activity against Gram-negative and Gram-positive bacterial strains, as well as against yeast, was examined as previously described by the disc-diffusion test, the MIC determination assay, the MBC (for bacteria), and the MFC (for yeasts) determination tests. All the above-mentioned tests were performed according to EUCAST [71, 72] and CLSI [73, 74, 75, 76, 77] recommendations. The following reference agents were used: nitrofurantoin (for Gram-negative rods), linezolid (for Gram-positive bacteria), and fluconazole (in the case of fungi). The new aromatic diboronic acids were dissolved in DMSO (Sigma, St. Louis, MO, USA). In the disc-diffusion test, the concentration of new agents was 0.4 mg per disc.

[3] = system: C. parapsilosis ATCC 22019; assay: antifungal activity (disc-diffusion, MIC, MFC); format: cell-based, Candida parapsilosis; conditions: Lodderomyces parapsilosis, ATCC22019
Method in brief: as §1

[4] = system: C. guilliermondii IBA 155; assay: antifungal activity (disc-diffusion, MIC, MFC); format: cell-based, Candida guilliermondii; conditions: Meyerozyma guilliermondii, IBA155
Method in brief: as §1

C. krusei ATCC 6258 = assay: antifungal activity (disc-diffusion, MIC, MFC); format: cell-based, Candida krusei; conditions: Pichia kudriavzevii, ATCC6258
Method in brief: as §1

C. albicans ATCC 90028 = assay: antifungal activity (disc-diffusion, MIC, MFC); format: cell-based; conditions: Candida albicans, ATCC90028
Method in brief: as §1

C. tropicalis ATCC 750 = assay: antifungal activity (disc-diffusion, MIC, MFC); format: cell-based; conditions: Candida tropicalis, ATCC750
Method in brief: as §1

C. tropicalis IBA 171 = assay: antifungal activity (disc-diffusion, MIC, MFC); format: cell-based; conditions: Candida tropicalis, IBA171
Method in brief: as §1

S. cerevisiae ATCC 9763 = assay: antifungal activity (disc-diffusion, MIC, MFC); format: cell-based; conditions: Saccharomyces cerevisiae, ATCC9763
Method in brief: as §1

[5] = system: Gram-negative rods (except P. aeruginosa); assay: direct antimicrobial activity, MIC; format: cell-based
Protocol: as §2

[6] = system: K. pneumoniae ATCC 700603 ESBL(+); assay: screening test of direct antimicrobial activity (STDA), disc-diffusion; format: cell-based; conditions: Klebsiella pneumoniae, ATCC700603; 0.3 mg per disc; - no zone; read-out: Diameter of inhibition zone around disc with tested agent
Protocol: (§3) Prior to combination disc tests, screening tests of direct antimicrobial activity (STDA) of the tested agent against β-lactamase-producing strains were performed by the disc-diffusion method. Discs with 0.3 mg, 0.1 mg, and 0.03 mg of each agent were examined. The highest amount of an agent that caused no effect on bacterial growth was used in further experiments.

[7] = system: P. aeruginosa MUW 700 AmpC(+); assay: as above; format: cell-based; conditions: Pseudomonas aeruginosa; 0.3 mg per disc; - no zone; read-out: Diameter of inhibition zone around disc with tested agent
Protocol: as §3

[8] = MTT-based viability assay; format: cell-based; conditions: human, MRC-5 human fibroblasts, 72 h, read-out: Viability of MRC-5 cells (% of viable cells ± SD)
Method in brief: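 Percent viable cells relative to control, measured in triplicate by MTT read-out at 570 nm. Cells: MRC-5 human fibroblasts cultured at 37 °C, 5% CO2 in MEME plus 10% FBS.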

Gram-positive strains = assay: direct antimicrobial activity, MIC; format: cell-based
Protocol: as §2, with “disc. Depending on the solubility, the MIC and MBC/MFC values were determined up to 100 mg/L for 1k, up to 200 mg/L for 7c, and up to 400 mg/L for the remaining compounds: 1a–1j, 2a–2g, 3a–3f, 4a–4b, 5a–5c, 6a and 7a–7b.” for “disc.”

[9] = system: K. pneumoniae ATCC BAA 1705 KPC-2-positive; assay: combination disc test CDT-KPC; format: cell-based; conditions: Klebsiella pneumoniae, BAA1705; meropenem 10 µg per disc, 6 mm disc; read-out: Diameter of inhibition zone, MEM-10 disc without agent
[10] = system: E. coli 76 KPC-2-positive; assay: checkerboard microdilution, antibiotic plus tested agent; format: cell-based, Escherichia coli; conditions: Escherichia coli; read-out: MIC of meropenem alone
Protocol: (§4) To examine the ability of tested agents to inhibit various carbapenemases and AmpC-enzymes, their synergy with antibiotics against β-lactamase-producing strains was assessed by checkerboard microdilution assay, with slight modification. Checkerboards were prepared in microtiter plates, with seven two-fold dilutions of β-lactams (1–64 mg/L) in the rows and three two-fold dilutions of tested agents and PBA (4–16 mg/L) in the columns. Tested agents’ concentrations were limited to the concentrations at which the newest commercially available BLIs (vaborbactam, relebactam, and avibactam) are used in susceptibility testing. Plates were inoculated and incubated as in the MIC microdilution assay. Parallel, MICs of tested agents and PBA alone were determined by the microdilution assay. Following the incubation, antibiotic MICs in the presence of each agent’s concentration were determined. Moreover, for the first well without growth found in each checkerboard row and column along the growth/non-growth interface, the fractional inhibitory concentration index (FICI) was calculated using the formula below:FICI = [(MIC of antibiotic in combination)/(MIC of antibiotic alone)] + [(MIC of the tested agent in combination)/(MIC of tested agent alone)].
(§5) For calculations, all off-scale MICs were converted to the next-highest doubling concentration. Subsequently, both the average and the lowest FICI were interpreted. The interpretation was as follows: FICI ≤ 0.5, synergy; 0.5 < FICI ≤ 4, indifference and FICI > 4, antagonism. Primarily, examined combinations consisted of meropenem (Pol-Aura, Morag, Poland) plus tested agents against carbapenemases-producing strains and ceftazidime (Pol-Aura, Morag, Poland) plus tested agents against AmpC-producing strains. For agents that reduced meropenem MIC at least 4-fold for at least two tested strains, similar assays were performed with imipenem (Pol-Aura, Morag, Poland) and ertapenem (Pol-Aura, Morag, Poland).

[11] = system: K. pneumoniae 81 KPC-3-positive; assay: as above; format: cell-based, Klebsiella pneumoniae; conditions: Klebsiella pneumoniae; read-out: MIC of meropenem alone
Protocol: as §4, §5

[12] = system: K. pneumoniae 83 KPC-3-positive, CTX-M-3-positive; assay: as above; format: cell-based, Klebsiella pneumoniae; conditions: Klebsiella pneumoniae; read-out: MIC of meropenem alone
Protocol: as §4, §5

[13] = system: K. pneumoniae ATCC BAA-1705 KPC-2-positive; assay: as above; format: cell-based, Klebsiella pneumoniae; conditions: Klebsiella pneumoniae, ATCCBAA1705; read-out: MIC of meropenem alone
Protocol: as §4, §5

[14] = system: P. aeruginosa 1204 VIM(+); assay: as above; format: cell-based; conditions: Pseudomonas aeruginosa; read-out: MIC of meropenem alone
Protocol: as §4
For calculations, all off-scale MICs were converted to the next-highest doubling concentration. […]

[15] = system: E. coli 82 TR(pl 81), transformant carrying blaKPC-3; assay: whole cell assay, meropenem MIC with tested agent; format: cell-based, Escherichia coli; conditions: Escherichia coli, read-out: MIC of meropenem alone
Protocol: as §4

E. coli DH5α = assay: whole cell assay, meropenem MIC with tested agent; format: cell-based, Escherichia coli; conditions: Escherichia coli; read-out: MIC of meropenem alone
Protocol: as §4

CRE strains = conditions: cited from earlier work
[16] = 0.4 mg per disc, 9 mm disc (linezolid 0.03 mg, 6 mm disc), - no zone, read-out: Diameter of inhibition zone
[17] = 0.4 mg per disc, 9 mm disc (fluconazole 0.025 mg, 6 mm disc), - no zone, read-out: Diameter of inhibition zone

MIC (E. faecalis ATCC 29212): 400 mg/L (≈ 958 µM)
MIC (E. faecium ATCC 6057): 400 mg/L (≈ 958 µM)
MIC [1]: 50 mg/L (≈ 120 µM)
MIC (S. aureus ATCC 6538P): 50 mg/L (≈ 120 µM)
MIC [2]: 50 mg/L (≈ 120 µM)
MIC ([3]; fluconazole by Etest): > 400 mg/L
MIC ([4]; fluconazole by Etest): 400 mg/L (≈ 958 µM)
MIC (C. krusei ATCC 6258; fluconazole by Etest): 400 mg/L (≈ 958 µM)
MIC (C. albicans ATCC 90028; fluconazole by Etest): 200 mg/L (≈ 479 µM)
MIC (C. tropicalis ATCC 750; fluconazole by Etest): > 400 mg/L
MIC (C. tropicalis IBA 171; fluconazole by Etest): > 400 mg/L
MIC (S. cerevisiae ATCC 9763; fluconazole by Etest): > 400 mg/L
MIC [5]: 50 to 400 mg/L (≈ 120 to 958 µM)
MIC (Gram-positive strains; enterococci): 100 to 400 mg/L (≈ 239 to 958 µM)
MIC (Gram-positive strains; staphylococci): 12.5 to 50 mg/L (≈ 29.9 to 120 µM)
SMILES: OB(O)c1cc(I)c(B(O)O)cc1I [1j]
zone of inhibition at 0.4 mg/disc [1, 16]: 21 mm
zone of inhibition at 0.4 mg/disc (S. aureus ATCC 6538P; [16]): 19 mm
zone of inhibition at 0.4 mg/disc [2, 16]: 25 mm
zone of inhibition at 0.4 mg/disc (B. subtilis ATCC 6633): 20 mm
zone of inhibition at 0.4 mg/disc [3, 17]: 15 mm
zone of inhibition at 0.4 mg/disc [4, 17]: 30 mm
zone of inhibition at 0.4 mg/disc (C. krusei ATCC 6258; [17]): 23 mm
zone of inhibition at 0.4 mg/disc (C. albicans ATCC 90028; [17]): 24 mm
zone of inhibition at 0.4 mg/disc (C. tropicalis ATCC 750; [17]): 17 mm
zone of inhibition at 0.4 mg/disc (C. tropicalis IBA 171; [17]): 15 mm
zone of inhibition at 0.4 mg/disc (S. cerevisiae ATCC 9763; [17]): 20 mm
zone of inhibition at 300 µg/disc [6]: 11 mm
zone of inhibition at 300 µg/disc [7]: 14 mm
viability at 72 h, 12.5 mg/L ([8]; 12.5 mg/L): 125 ± 2.8%
viability at 72 h, 25 mg/L ([8]; 25 mg/L): 117 ± 1.2%
viability at 72 h, 50 mg/L ([8]; 50 mg/L): 88.6 ± 3.5%

SMILES: C[C@@H](O)[C@H]1C(=O)N2C(C(=O)O)=C(S[C@@H]3CN[C@H](C(=O)N(C)C)C3)[C@H](C)[C@H]12 [MEM, meropenem, reference compound]
zone of inhibition at 10 µg/disc [9]: 6 mm
MIC [10]: 64 mg/L
MIC [11]: 16 mg/L
MIC [12]: 32 mg/L
MIC [13]: 32 mg/L
MIC [14]: 64 mg/L
MIC [15]: 2 mg/L
MIC (E. coli DH5α): 0.016 mg/L

SMILES: O=C(O)c1c(F)ccc2c1OB(O)[C@@H]1C[C@H]21 [xeruborbactam]
MIC (CRE strains): 16 mg/L (≈ 72.1 µM)

From PMC10648349, “Aromatic Diboronic Acids as Effective KPC/AmpC Inhibitors” (Molecules, 2023)
